Patent US9352049B2, “Ligand-therapeutic agent conjugates, silicon-based linkers, and methods for making and using them” (Albany Molecular Research, Inc., priority 2013, dated 2016)
Where a name gives a salt, the structure may show the parent alone. Read-outs that look alike come from different tables or passages of the source.

How the values were obtained:
[1] = tested on: FR-negative human lung carcinoma A549 cells; assay: cells; assay type: cell-based; settings: for IC50: read-out: IC50, Inhibition of Cell Growth by the PrestoBlue Method; for inhibition at 10 µM: read-out: Percentage inhibition at the highest concentration tested (10 μM)
Experimental: (§1) Folate receptor (FR)-positive KB cells (Human) from European Collection of Cell Cultures (ECACC) [Catalogue #94050408] or FR-negative human lung carcinoma A549 cells from American Type Culture Collection (ATCC) [Catalogue # CCL-185] were maintained in T75 flasks in folic acid-free RPMI 1640 medium (Invitrogen, catalogue no. 27016021) containing 10% fetal bovine serum (FBS; Invitrogen, catalogue no. 16140-071) and penicillin/streptomycin (Invitrogen, catalogue no. 15140-122) at 37° C., 5% CO2.
(§2) Cells were harvested from their maintenance cultures and seeded in 96-well plates at a density of 10000 cells per well in 100 μL folic acid-free RPMI 1640 medium and incubated at 37° C., 5% CO2 for 20-24 hours. Thirty minutes prior to compound treatment, spent medium was removed and replaced with 100 μL fresh folic acid-free RPMI 1640 medium either as such, or supplemented with 100 μmol/L folic acid. The test compounds were diluted to three times their desired final concentrations in the culture medium from their DMSO stocks. […] Following compound treatment, the cells were washed thrice with 100 μL medium and incubated with 180 μL fresh medium for 72 hours. To assess cell viability, 20 μL of PrestoBlue reagent (Invitrogen, catalogue # A-13261) was added to the wells and the plates were further incubated for 1 hour at 37° C. The PrestoBlue reagent contains a cell-permeant dye, resazurin, which is blue in color and virtually nonfluorescent. When added to cells, it is reduced by the mitochondrial enzymes in viable cells to red, highly fluorescent resorufin. Resazurin reduction is proportional to the number of metabolically active cells and therefore can be measured quantitatively. Following incubation with the PrestoBlue reagent for 1 hour, fluorescence corresponding to the resorufin dye was read on a Synergy 4 multimode microplate reader (Biotek Instruments) with the excitation and emission wavelengths set at 540 nm and 590 nm respectively. The data was analysed using XLFit and the percentage inhibition of cell proliferation was calculated.

[2] = tested on: Folate receptor (FR)-positive KB cells; assay: cells; assay type: cell-based, Human; settings: for IC50: read-out: IC50, Inhibition of Cell Growth by the PrestoBlue Method; for inhibition at 10 µM: KB, read-out: Percentage inhibition at the highest concentration tested (10 μM)
Experimental: as §1, §2

[3] = Cleavage study of silyl conjugates at pH 7.4 (THF:0.01 M PBS buffer, 37° C.); assay type: physicochemical; settings: THF:0.01 M PBS buffer (pH 7.4), 37° C., over 20 hours
Experimental: To study the release properties of the silyl conjugates, the conjugates were subject to hydrolysis conditions at both pH 7.4 and pH 4.5 to simulate blood and endosomes/lysosome environments, respectively.
Example 12 and Example 15 were dissolved in THF:0.01 M PBS buffer (pH 7.4) and heated to 37° C. with stirring for over 20 hours. […] Additionally, Example 11 was trapped with methyl-3-mercaptopropionate to approximate a bioconjugate.

[4] = Homo sapiens, No FA, incubation 2 h
[5] = Homo sapiens, No FA, incubation 4 h
[6] = Homo sapiens, No FA, incubation 8 h
[7] = Homo sapiens, No FA, incubation 16 h

Question: What does the source list for `CCC1(O)CC2CN(CCc3c([nH]c4ccccc34)C(C(=O)OC)(c3cc4c(cc3OC)N(C)C3C(O)(C(=O)OC)C(O[Si]5(CCCCC(=O)NCCOCCOCCNC(=O)CCC(NC(=O)c6ccc(NCc7cnc8nc(N)nc(O)c8n7)cc6)C(=O)O)CCCCC5)C5(CC)C=CCN6CCC43C65)C2)C1` (centres unmarked) [Example 20]?
Answer: Percentage inhibition at the highest concentration tested (10 μM) ([1]; 100 μM FA, incubation 2 h): 44%; IC50 ([1]; 100 μM FA, incubation 2 h): > 10 µM; IC50 ([1]; 100 μM FA, incubation 4 h): 6.6 µM; IC50 ([1]; 100 μM FA, incubation 8 h): 4.1 µM; IC50 ([1]; 100 μM FA, incubation 16 h): 1.4 µM; Percentage inhibition at the highest concentration tested (10 μM) ([1]; No FA, incubation 2 h): 20%; IC50 ([1]; No FA, incubation 2 h): > 10 µM; Percentage inhibition at the highest concentration tested (10 μM) ([1]; No FA, incubation 4 h): 46%; IC50 ([1]; No FA, incubation 4 h): > 10 µM; IC50 ([1]; No FA, incubation 8 h): 6.7 µM; IC50 ([1]; No FA, incubation 16 h): 1.4 µM; IC50 ([2]; 100 μM FA, incubation 2 h): 4.2 µM; IC50 ([2]; 100 μM FA, incubation 4 h): 3.4 µM; IC50 ([2]; 100 μM FA, incubation 8 h): 3.1 µM; IC50 ([2]; 100 μM FA, incubation 16 h): 1.5 µM; IC50 ([2]; No FA, incubation 2 h): 3.5 µM; IC50 ([2]; No FA, incubation 4 h): 2.6 µM; IC50 ([2]; No FA, incubation 8 h): 1.8 µM; IC50 ([2]; No FA, incubation 16 h): 0.3 µM

Question: For `Nc1nc(O)c2nc(CNc3ccc(C(=O)N[C@@H](CCC(=O)NCCOCCOCCNC(=O)CCCC[Si]4(O)CCCCC4)C(=O)O)cc3)cnc2n1` [Compound Z, (S)-2-(4-(((2-amino-4-hydroxypteridin-6-yl)methyl)amino)benzamido)-20-(1-hydroxysilinan-1-yl)-5,16-dioxo-9,12-dioxa-6,15-diazaicosan-1-oic acid triethylammonium salt, reference compound], which IC50 ([1]; 100 μM FA, incubation 2 h) is on record?
Answer: > 10 µM

Question: What about the IC50 ([1]; 100 μM FA, incubation 4 h) of the same compound?
Answer: > 10 µM

Question: And the IC50 ([1]; 100 μM FA, incubation 8 h)?
Answer: > 10 µM

Question: And the IC50 ([1]; 100 μM FA, incubation 16 h)?
Answer: > 10 µM

Question: What about the inhibition at 10 µM ([1]; Homo sapiens, A549, 2 h, 100 μM FA, incubation 2 h) of the same compound?
Answer: 9%

Question: What about the inhibition at 10 µM ([1]; Homo sapiens, A549, 2 h, No FA, incubation 2 h) of the same compound?
Answer: 7%

Question: What about the inhibition at 10 µM ([1]; Homo sapiens, A549, 4 h, 100 μM FA, incubation 4 h) of the same compound?
Answer: ≤ 0%

Question: And the inhibition at 10 µM ([1]; Homo sapiens, A549, 4 h, No FA, incubation 4 h)?
Answer: ≤ 0%

Question: And the inhibition at 10 µM ([1]; Homo sapiens, A549, 8 h, 100 μM FA, incubation 8 h)?
Answer: ≤ 0%

Question: What about the inhibition at 10 µM ([1]; Homo sapiens, A549, 8 h, No FA, incubation 8 h) of the same compound?
Answer: ≤ 0%

Question: And the inhibition at 10 µM ([1]; Homo sapiens, A549, 16 h, 100 μM FA, incubation 16 h)?
Answer: 3.5%

Question: What about the inhibition at 10 µM ([1]; Homo sapiens, A549, 16 h, No FA, incubation 16 h) of the same compound?
Answer: ≤ 0%

Question: What about the IC50 [1, 4] of the same compound?
Answer: > 10 µM

Question: And the IC50 [1, 5]?
Answer: > 10 µM

Question: What about the IC50 [1, 6] of the same compound?
Answer: > 10 µM

Question: And the IC50 [1, 7]?
Answer: > 10 µM

Question: What about the IC50 ([2]; 100 μM FA, incubation 2 h) of the same compound?
Answer: > 10 µM

Question: What about the IC50 ([2]; 100 μM FA, incubation 4 h) of the same compound?
Answer: > 10 µM

Question: And the IC50 ([2]; 100 μM FA, incubation 8 h)?
Answer: > 10 µM

Question: What about the IC50 ([2]; 100 μM FA, incubation 16 h) of the same compound?
Answer: > 10 µM

Question: What about the inhibition at 10 µM ([2]; Homo sapiens, 2 h, 100 μM FA, incubation 2 h) of the same compound?
Answer: 1%

Question: What about the inhibition at 10 µM ([2]; Homo sapiens, 2 h, No FA, incubation 2 h) of the same compound?
Answer: ≤ 0%

Question: And the inhibition at 10 µM ([2]; Homo sapiens, 4 h, 100 μM FA, incubation 4 h)?
Answer: ≤ 0%

Question: What about the inhibition at 10 µM ([2]; Homo sapiens, 4 h, No FA, incubation 4 h) of the same compound?
Answer: ≤ 0%

Question: And the inhibition at 10 µM ([2]; Homo sapiens, 8 h, 100 μM FA, incubation 8 h)?
Answer: ≤ 0%

Question: What about the inhibition at 10 µM ([2]; Homo sapiens, 8 h, No FA, incubation 8 h) of the same compound?
Answer: ≤ 0%

Question: What about the inhibition at 10 µM ([2]; Homo sapiens, 16 h, 100 μM FA, incubation 16 h) of the same compound?
Answer: 2%

Question: And the inhibition at 10 µM ([2]; Homo sapiens, 16 h, No FA, incubation 16 h)?
Answer: 1%

Question: What about the IC50 [2, 4] of the same compound?
Answer: > 10 µM

Question: What about the IC50 [2, 5] of the same compound?
Answer: > 10 µM

Question: And the IC50 [2, 6]?
Answer: > 10 µM

Question: And the IC50 [2, 7]?
Answer: > 10 µM

Question: For `CC[C@]1(O)CC2CN(CCc3c([nH]c4ccccc34)[C@@](C(=O)OC)(c3cc4c(cc3OC)N(C)[C@H]3[C@@](O)(C(=O)OC)[C@H](O[Si]5(CCCCC(=O)NCCOCCOCCOCCNC(=O)CC[C@H](NC(=O)c6ccc(NCc7cnc8nc(N)nc(O)c8n7)cc6)C(=O)O)CCCCC5)[C@]5(CC)C=CCN6CC[C@]43[C@@H]65)C2)C1` (some centres unmarked) [Example 21], which “Percentage inhibition at the highest concentration tested (10 μM)” value (“Percentage inhibition” below) ([1]; 100 μM FA, incubation 2 h) is on record?
Answer: 40%

Question: What about the IC50 ([1]; 100 μM FA, incubation 2 h) of the same compound?
Answer: > 10 µM

Question: And the IC50 ([1]; 100 μM FA, incubation 4 h)?
Answer: 8.6 µM

Question: What about the IC50 ([1]; 100 μM FA, incubation 8 h) of the same compound?
Answer: 5.3 µM

Question: What about the IC50 ([1]; 100 μM FA, incubation 16 h) of the same compound?
Answer: 1.8 µM

Question: And the “Percentage inhibition” value ([1]; No FA, incubation 2 h)?
Answer: 8%

Question: And the IC50 ([1]; No FA, incubation 2 h)?
Answer: > 10 µM

Question: And the “Percentage inhibition” value ([1]; No FA, incubation 4 h)?
Answer: 24%

Question: And the IC50 ([1]; No FA, incubation 4 h)?
Answer: > 10 µM

Question: What about the “Percentage inhibition” value ([1]; No FA, incubation 8 h) of the same compound?
Answer: 47%

Question: What about the IC50 ([1]; No FA, incubation 8 h) of the same compound?
Answer: > 10 µM

Question: And the IC50 ([1]; No FA, incubation 16 h)?
Answer: 4.4 µM

Question: And the IC50 ([2]; 100 μM FA, incubation 2 h)?
Answer: 6 µM

Question: And the IC50 ([2]; 100 μM FA, incubation 4 h)?
Answer: 4 µM

Question: And the IC50 ([2]; 100 μM FA, incubation 8 h)?
Answer: 3.1 µM

Question: And the IC50 ([2]; 100 μM FA, incubation 16 h)?
Answer: 1.7 µM

Question: What about the IC50 ([2]; No FA, incubation 2 h) of the same compound?
Answer: 4.1 µM

Question: What about the IC50 ([2]; No FA, incubation 4 h) of the same compound?
Answer: 3.1 µM

Question: What about the IC50 ([2]; No FA, incubation 8 h) of the same compound?
Answer: 2.3 µM

Question: And the IC50 ([2]; No FA, incubation 16 h)?
Answer: 1.5 µM

Question: Which IC50 ([1]; No FA, incubation 2 h) does the source give for `CC[C@]1(O)C[C@H]2CN(CCc3c([nH]c4ccccc34)[C@@](C(=O)OC)(c3cc4c(cc3OC)N(C)[C@@H]3C45CCN4CC=C[C@](CC)([C@H]45)[C@@H](O)[C@]3(O)C(=O)OC)C2)C1` (some centres unmarked) [4-desacetylvinblastine, reference compound] here?
Answer: 4.6 µM

Question: And the IC50 ([1]; No FA, incubation 4 h)?
Answer: 0.633 µM

Question: What about the IC50 ([1]; No FA, incubation 8 h) of the same compound?
Answer: 0.129 µM

Question: And the IC50 ([1]; No FA, incubation 16 h)?
Answer: 0.057 µM

Question: And the IC50 ([2]; No FA, incubation 2 h)?
Answer: 0.045 µM

Question: What about the IC50 ([2]; No FA, incubation 4 h) of the same compound?
Answer: 0.01 µM

Question: What about the IC50 ([2]; No FA, incubation 8 h) of the same compound?
Answer: 0.002 µM

Question: What about the IC50 ([2]; No FA, incubation 16 h) of the same compound?
Answer: 0.003 µM

Question: Which “hydrolysis (e.g. parent vinca) at pH 7.4” value [3] does the source give for `CC[C@]1(O)CC2CN(CCc3c([nH]c4ccccc34)[C@@](C(=O)OC)(c3cc4c(cc3OC)N(C)[C@H]3[C@@](O)(C(=O)OC)[C@H](O[Si]5(CCCCC(=O)OCc6ccccc6)CCCC5)[C@]5(CC)C=CCN6CC[C@]43[C@@H]65)C2)C1` (stereo partly drawn) [Example 12, (3aR,3a^1R,4R,5S,10bR)-methyl 4-((1-(5-(benzyloxy)-5-oxopentyl)silolan-1-yl)oxy)-3a-ethyl-9-((5S,7R,9S)-5-ethyl-5-hydroxy-9-(methoxycarbonyl)-2,4,5,6,7,8,9,10-octahydro-1H-3,7-methano[1]azacycloundecino[5,4-b]indol-9-yl)-5-hydroxy-8-methoxy-6-methyl-3a,3a^1,4,5,5a,6,11,12-octahydro-1H-indolizino[8,1-cd]carbazole-5-carboxylate] here?
Answer: No evidence of hydrolysis
